Test results published in PubChem BioAssay (NCI).
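How tested: cells in 96-well plates exposed to compound for 48 hours at five concentrations. TGI marks complete inhibition of growth.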

What was measured:
Test in all cases: NCI anticancer screen, dose series, 48 h
[1] = test system: MCF7 breast
[2] = test system: KM12 colon
[3] = test system: DU-145 prostate
[4] = test system: NCI/ADR-RES ovarian
[5] = test system: SK-MEL-5 melanoma
[6] = test system: UO-31 renal
[7] = test system: CCRF-CEM leukemia
[8] = test system: HS 578T breast
[9] = test system: M14 melanoma
[10] = test system: 786-0 renal
[11] = test system: NCI-H23 lung
[12] = test system: MOLT-4 leukemia
[13] = test system: HCT-116 colon
[14] = test system: SNB-75 CNS
[15] = test system: TK-10 renal
[16] = test system: SR leukemia
[17] = test system: HL-60(TB) leukemia
[18] = test system: A498 renal
[19] = test system: MDA-MB-435
[20] = test system: A549 NSCLC
[21] = test system: OVCAR-3 ovarian
[22] = test system: RPMI-8226 leukemia
[23] = test system: UACC-62 melanoma
[24] = test system: MDA-N
[25] = test system: K-562 leukemia
[26] = test system: MDA-MB-231 breast
[27] = test system: RXF 393 renal
[28] = test system: ACHN renal
[29] = test system: IGROV1 ovarian
[30] = test system: HCT-15 colon
[31] = test system: SF-268 CNS
[32] = test system: SN12C renal
[33] = test system: PC-3 prostate
[34] = test system: SF-539 CNS
[35] = test system: SK-MEL-2 melanoma
[36] = test system: T-47D breast
[37] = test system: MALME-3M melanoma
[38] = test system: LOX IMVI melanoma
[39] = test system: SK-MEL-28 melanoma
[40] = test system: BT-549 breast
[41] = test system: SF-295 CNS
[42] = test system: HOP-62 NSCLC
[43] = test system: OVCAR-4 ovarian
[44] = test system: CAKI-1 renal
[45] = test system: U251 CNS
[46] = test system: HOP-92 NSCLC
[47] = test system: SW-620 colon
[48] = test system: COLO 205 colon
[49] = test system: SK-OV-3 ovarian
[50] = test system: HT29 colon
[51] = test system: SNB-19 CNS
[52] = test system: OVCAR-5 ovarian
[53] = test system: UACC-257 melanoma
[54] = test system: HCC-2998 colon
[55] = test system: NCI-H460 lung
[56] = test system: EKVX NSCLC
[57] = test system: NCI-H522 lung
[58] = test system: NCI-H226 lung
[59] = test system: OVCAR-8 ovarian

Measured: TGI

Cc1c(N=Nc2ccccc2)c(C)n(C2OC(CO)C(O)C(O)C2O)c(=S)c1C#N (centres undefined)
48.9 µM: [46]
72.5 µM: [18]
81.5 µM: [52]
73.1 µM: [6]
57.8 µM: [34]
59.6 µM: [42]
45.8 µM: [40]
87.2 µM: [45]
59.3 µM: [54]
65.8 µM: [9]
71.4 µM: [19]
46.2 µM: [13]
90.2 µM: [35]
54.8 µM: [38]
62.9 µM: [21]
95.8 µM: [36]
96.2 µM: [51]
25 µM: [5]
18.9 µM: [23]
87.7 µM: [16]
78.6 µM: [33]
70 µM: [12]
not listed: [56] | [57] | [58] | [59]
> 100 µM: all other assays above

CN(C)c1ccc(/C=C(\NC(=O)c2ccccc2)C2=NC(CCC(=O)O)C(=O)O2)cc1 (centres undefined)
49.1 µM: [57]
> 50 µM: all other assays above
